According to the NIST ThermoML archive (doi:10.1016/j.jct.2007.06.016):
Numbers after ± are expanded uncertainties.

Assays:
[1] = 298.15 K, 101.33 kPa, Liquid
[2] = refractive index (Na D-line) (dimensionless); conditions: 298.15 K; 101.33 kPa; Liquid; Standard Abbe refractometry

Structure (SMILES)	mass density [1] [kg/m3]	refractive index [2]	mass density ([1]; Vibrating tube method) [kg/m3]
c1ccsc1 [thiophene]	1058.5 ± 0.55	1.52581 ± 0.0007	
C1CCCCC1 [cyclohexane]	773.76 ± 0.52	1.42403 ± 0.00068	
CCCCCCCCn1cc[n+](C)c1.O=S(=O)([N-]S(=O)(=O)C(F)(F)F)C(F)(F)F		1.43331 ± 0.0012	1320.76 ± 9.5
CCCCCCCCCCCC [dodecane]	745.32 ± 0.91	1.42011 ± 0.0007	
